Test results: article PMC7456811, “Regulation of Melanocortin-4 Receptor Pharmacology by Two Isoforms of Melanocortin Receptor Accessory Protein 2 in Topmouth Culter (Culter alburnus)” (Frontiers in Endocrinology, 2020)
Marks after values point to notes of the source that are not given here.

Key:
[1] = test system: caMC4R; assay: Competitive ligand binding (125I-NDP-MSH displacement); details: displacement of 125I-NDP-MSH; for IC50: HEK293T cells, mean ± SEM of at least three independent experiments
[2] = test system: caMC4R; assay: Intracellular cAMP signaling (radioimmunoassay); format: cell-based, topmouth culter (Culter alburnus); details: for stimulation of intracellular cAMP, in words / EC50 / Rmax (cAMP): HEK293T cells; for EC50: cAMP RIA; for EC50 / Rmax (cAMP): mean ± SEM of at least three independent experiments; for Rmax (cAMP): hMC4R = 100
Protocol: The medium contained Dulbecco's Modified Eagle's medium (DMEM) (Invitrogen, Carlsbad, CA, USA), 10% newborn calf serum, 10 mM HEPES, 50 μg/mL of gentamicin, 0.25 μg/mL of amphotericin B, 100 μg/mL of streptomycin and 100 IU/mL of penicillin. Cells were plated into 24-well or 6-well plates (Corning, NY, USA) pre-coated with 0.1% gelatin.
Radioimmunoassay for intracellular cAMP was performed as described previously ([47], [48]).
Prism 8.3 software (GraphPad, San Diego, CA, USA) was used to calculate parameters including maximal binding (Bmax), IC50, maximal response (Rmax), basal activity, and EC50. […] Ligand binding, cAMP, flow cytometry parameters of caMC4R regulated by MRAP2s and ERK1/2 signaling were analyzed for significance of differences by one-way ANOVA.
HEK293T cells were transiently transfected with MC4R plasmids. […] Data are mean ± SEM from triplicate measurements within one experiment. All experiments were performed at least three times independently.

Compound	binding affinity, in words [1]	EC50 and Rmax compared with hMC4R, in words ([2]; caMC4R versus hMC4R, cAMP)	stimulation of intracellular cAMP, in words ([2]; caMC4R)	EC50 ([2]; caMC4R) [nM]	Rmax (cAMP) ([2]; caMC4R)	allosteric agonism, in words ([2]; caMC4R, concluded from binding and cAMP data)	IC50 [1] [nM]
O=C(N[C@H](Cc1ccc(Cl)cc1)C(=O)N1CCC(Cn2cncn2)(C2CCCCC2)CC1)[C@H]1Cc2ccccc2CN1 [THIQ, N-[(3R)-1,2,3,4-Tetrahydroisoquinolinium-3-ylcarbonyl]-(1R)-1-(4-chlorobenzyl)-2-[4-cyclohexyl-4-(1H-1,2,4-triazol-1-ylmethyl)piperidin-1-yl]-2-oxoethylamine]	able to displace the ^125I-NDP-MSH bound with caMC4R	EC50 was significantly increased and Rmax was significantly decreased	dose-dependently increased intracellular cAMP levels	75.7 ± 10.6	39.73 ± 1.37^b %	not an allosteric agonist at caMC4R	
CSCC[C@H](NC(=O)[C@H](CCCNC(=N)N)NC(=O)[C@H](Cc1ccc(O)cc1)NC(=O)[C@@H]1CCCN1C(=O)CNC(=O)[C@H](CCC(=O)O)NC(=O)[C@H](CC(=O)O)NC(=O)[C@H](CCCCN)NC(=O)[C@H](CCCCN)NC(=O)[C@H](CCC(=O)O)NC(=O)[C@H](C)N)C(=O)N[C@@H](CCC(=O)O)C(=O)N[C@@H](Cc1c[nH]cn1)C(=O)N[C@@H](Cc1ccccc1)C(=O)N[C@@H](CCCNC(=N)N)C(=O)N[C@@H](Cc1c[nH]c2ccccc12)C(=O)NCC(=O)N[C@@H](CO)C(=O)N1CCC[C@H]1C(=O)N1CCC[C@H]1C(=O)N[C@@H](CCCCN)C(=O)N[C@@H](CC(=O)O)C(=O)O [β-MSH, β-melanocyte-stimulating hormone]	significantly higher affinity to β-MSH than hMC4R		dose-dependently increased intracellular cAMP levels	5.76 ± 1.62	167.74 ± 27.91%		442 ± 65.4
[Nle^4, D-Phe^7]-α-MSH [NDP-MSH]			dose-dependently increased intracellular cAMP levels	0.44 ± 0.24	84.48 ± 8.28%		4.87 ± 1.8
